Measured values as given in patent US7368428B2, “Compositions and methods for restoring sensitivity of tumor cells to antitumor therapy and inducing apoptosis” (A&G Pharmaceutical, Inc., priority 2003, dated 2008).
Where a name gives a salt, the structure may show the parent alone.

Key:
cyclin D1 = cyclin D1 expression (FIG. 11 lanes); assay type: cell-based
Text: Tumors progress through various stages of growth and maturation leading to increased mobility of the tumor through the body. Therefore, tumor cells can be targeted at several stages during the progression of tumor growth and maturation. For example, GP88 antagonists inhibit tumor cell growth and proliferation. For example, GP88 induces expression of cyclin D1, a cell cycle regulatory protein involved in the growth and proliferation of tumor cells.

[1] = test system: MCF-7 breast carcinoma cells; assay: PARP cleavage Western blot (apoptosis) in MCF-7 cells; assay type: cell-based; details: FIG. 5; for 85 kDa PARP cleavage product: agent alone
Text: Tamoxifen-induced apoptosis is blocked in tumor cells overexpressing GP88. FIG. 5 is a western blot measuring the level of the PARP cleavage product (85 kDa band) in MCF-7 breast carcinoma cells treated with tamoxifen, tamoxifen+GP88, tamoxifen+estradiol, GP88, and a control. […] Tamoxifen-induced apoptosis was blocked by treatment with estradiol, a compound known to block tamoxifen-induced apoptosis, as shown by the decrease in the 85 kDa band in the lane labeled “Tamoxifen+estradiol.” Tamoxifen-induced apoptosis was blocked by treatment with GP88 to the same extent as treatment by estradiol.
(§1) The present invention also provides methods of inducing apoptosis comprising administering a GP88 antagonist to a tumor cell. Apoptosis can be induced in all tumor cell types including, but not limited to, neuroblastoma, glioblastoma, astrocytoma, sarcomas, and cancers of the prostate, blood, cerebrospinal fluid, liver, kidney, breast, head and neck, pharynx, thyroid, pancreas, stomach, colon, colorectal, uterus, cervix, bone, bone marrow, testes, brain, neural tissue, ovary, skin, and lung. Apoptosis can be detected in tumor cells by a variety of techniques including, but not limited to for example, detection of Bcl-2 levels or detection of the PARP cleavage product, DNA ladder, and production of apoptotic cells. PARP or poly(ADP-ribose) polymerase is a nuclear binding protein that detects DNA strand breaks and participates in DNA repair. Cleavage of PARP is a hallmark of caspases-dependent apoptosis. When apoptosis takes place, the 116 kDa intact PARP is cleaved in two fragments, 85 kDa and 25 kDa. Detection of intact and cleaved forms of PARP by Western Blot analysis with anti-PARP antibody has been established as an apoptosis assay. Duriez et al., Biochem Cell Biol. 75: 337-49, 1997. […]
(§2) MCF-7 cells or O4 cells were seeded at a density of 7×10^5 cells in 60-mm dish in DMEM/F12 supplemented with 5% FBS. […] Intact and cleaved forms of PARP were detected using a mouse monoclonal anti-PARP antibody from Oncogene Research (San Diego, Calif.). α-Actin was used for normalizing the loading.

[2] = test system: O4 cells (GP88 overexpressing cells); assay: tumor growth of O4 cells in ovariectomized nude mice; assay type: in vivo
Text: Athymic ovariectomized female nude mice were implanted with an estradiol pellet one day before being injected (S.C) with either MCF-7 cells or O4 cells. After 10 days when the tumors were visible, the mice received either a placebo pellet or tamoxifen pellet. Tumor growth was monitored for 45 days. At the end of the experiments, mice were euthanized and the tumors were excised and evaluated. […] In contrast, tumor volume in mice with tumor induced by O4 cells and untreated with tamoxifen increased from 75 mm^3 to 150 mm^3 in 45 days. Tamoxifen treatment of tumors overexpressing GP88 increased tumor volume more than 4 times while tumor volume of untreated GP88 overexpressing tumors increased by 2 times.

Bcl-2 [3] = assay: Bcl-2 mRNA transcript RT-PCR in MCF-7 cells; assay type: cell-based; details: all concentrations tested (0 to 2 μm tamoxifen), FIG. 6
Text: (§3) Apoptosis is controlled by the ratio of apoptotic to anti-apoptotic factors, particularly Bcl-2, bcl-xl and bax. […] Zhang et al., Clin. Cancer Res. 5: 2971-7, 1999; Cameron et al., Eur. J. Cancer 36: 845-51, 2000. Alteration of Bcl-2 expression levels changes the bax:Bcl-2 ratio and alters susceptibility to apoptosis. O4 cells are MCF-7 cells transformed with a GP88 expression construct to overexpress GP88. Serrero et al., Proc. Natl. Acad. Sci. U.S.A. 97: 3993-8, 2000.
(§4) GP88 overexpression blocks down-regulation of Bcl-2 mRNA transcript in response to tamoxifen treatment. MCF-7 cells and MCF-7 cells overexpressing GP88 (O4 cells) were treated with 0 to 2 μm tamoxifen. FIG. 6. 5 μg of total RNA was reverse transcribed into single strand cDNA by Super Script II (BRL, Gaithersburg, Md.) using 20 ng random hexamer (Gibco) as primer. The reverse transcription reaction was carried out for 1 h at 42 C in […] Tris-HCl (pH8.3), 2.5 mM MgCl2, 50 mM KCl, DTT 0.01 M and dNTP (each 0.5 mM). A total of 30-35 PCR cycles depending on the gene amplified were performed, followed by electrophoresis on 1% agarose gel. The specific primer pairs used were as follows: for glyceraldehyde 3-phosphate dehydrogenase (GAPDH): forward primer 5′ […] 3′ (SEQ ID NO: 9), reverse primer, 5′ […] 3′ (SEQ ID NO: 10); for Bcl-2: forward primer 5′ […] 3′ (SEQ ID NO: 11), reverse primer 5′ […] […]

[4] = test system: tamoxifen resistant MCF-7 cells; assay: PARP cleavage Western blot (apoptosis) in tamoxifen resistant MCF-7 cells; assay type: cell-based; details: agent alone, FIG. 8
Text: as §1, with “kDa.” for “kDa. Detection of intact and cleaved forms of PARP by Western Blot analysis with anti-PARP antibody has been established as an apoptosis assay. Duriez et al., Biochem Cell Biol. 75: 337-49, 1997.”
as §2

Bcl-2 [5] = assay: Bcl-2 mRNA transcript RT-PCR in O4 cells; assay type: cell-based; details: even at elevated doses, FIG. 6
Text: as §3, §4

Compound	expression of cyclin D1 (cyclin D1)	tamoxifen-induced apoptosis (85 kDa PARP cleavage product) ([1]; agent added together with tamoxifen)	85 kDa PARP cleavage product [1]	increase of tumor volume ([2]; O4 cell tumors (overexpressing GP88), tamoxifen treatment, 45 days)	tumor volume after 45 days ([2]; O4 cell tumors, ovariectomized nude mice with estradiol pellet, tamoxifen pellet, after 45 days, FIG. 9)	tumor volume at start ([2]; O4 cell tumors, ovariectomized nude mice with estradiol pellet, tamoxifen pellet, start value, FIG. 9)	Bcl-2 transcript (Bcl-2 [3])	cleavage of PARP [4]	Bcl-2 transcript (Bcl-2 [5])
GP88: 88 kDa glycoprotein growth factor, epithelin/granulin precursor	stimulates	blocked	not in the presence of GP88						
CC/C(=C(\c1ccccc1)c1ccc(OCCN(C)C)cc1)c1ccccc1 [tamoxifen, tamoxifen citrate]			significantly increased	more than 4 times	about 225 mm^3	50 mm^3	induced down-regulation	does not cleave PARP	failed to down regulate
